US20200347136A1, “CONSTRAINED CYCLIC PEPTIDES AS INHIBITORS OF THE CD2:CD58 PROTEIN-PROTEIN INTERACTION FOR TREATMENT OF DISEASES AND AUTOIMMUNE DISORDERS” (Board of Supervisors for the University of Louisiana System, priority 2019, published 2020)
“Also recorded” adds a separate entry of the source.

Tests used:
[1] = biological target: T1, HER2 ECD protein (domains I-IV) (Homo sapiens, UniProt P04626); assay: SPR binding to immobilized HER2 ECD; conditions: analyte over immobilized HER2 ECD
T1 construct: immobilizing HER2 ECD protein (domains I-IV, 620 amino acids)
T1 sequence (P04626 23-652 limits assumed): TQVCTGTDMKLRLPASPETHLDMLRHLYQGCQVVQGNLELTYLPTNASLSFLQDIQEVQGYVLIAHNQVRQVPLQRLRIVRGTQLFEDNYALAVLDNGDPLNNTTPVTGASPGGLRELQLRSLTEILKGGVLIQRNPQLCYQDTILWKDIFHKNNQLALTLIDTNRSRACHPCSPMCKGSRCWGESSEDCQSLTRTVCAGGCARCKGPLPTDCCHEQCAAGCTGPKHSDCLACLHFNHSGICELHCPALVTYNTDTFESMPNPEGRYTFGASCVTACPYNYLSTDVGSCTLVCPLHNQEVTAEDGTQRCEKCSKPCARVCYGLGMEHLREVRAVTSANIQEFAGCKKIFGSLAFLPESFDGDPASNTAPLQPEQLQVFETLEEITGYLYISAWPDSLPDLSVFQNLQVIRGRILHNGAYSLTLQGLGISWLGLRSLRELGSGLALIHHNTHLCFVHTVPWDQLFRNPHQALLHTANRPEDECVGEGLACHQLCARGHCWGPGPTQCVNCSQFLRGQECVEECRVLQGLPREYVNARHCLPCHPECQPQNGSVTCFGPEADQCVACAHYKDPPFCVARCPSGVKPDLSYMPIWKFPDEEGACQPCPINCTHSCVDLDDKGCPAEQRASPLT
Experimental: Binding affinities were obtained by global fitting analysis of the titration curve to the 1:1 Langmuir interaction model, and the Kd value was calculated.

[2] = tested on: phosphorylation of HER2 and Akt; assay: Western blot of HER2 and Akt phosphorylation, A549 cells; type: cell-based
Experimental: Binding to ECD protein at different concentrations. Kinetics of association and dissociation are shown. Inset saturation curve for binding. […] EGFR was immobilized on CM5-chip and HER2 was added as analyte. Binding of HER2 to EGFR is shown in red. […] Control represents cells without the peptide and without one of the antibodies (B & E). […] Control represents cells without the peptide and without one of the antibodies (F). […] Nucleus was stained with DAPI. III) Quantification of PLA assay fluorescence intensity. 3-6 different fields were chosen, and intensity of red fluorescence was measured using ImageJ software. […] Scale 20 μm. Magnification 40×. *p<0.05, ** p<0.01. Mean±SEM. […] The visualization of GAPDH was used to ensure equal sample loading in each lane. […] II) Quantification of Western blot images using densitometry. *p<0.05 *** P<0.001. Mean±SEM.
The phosphorylation of HER2 was measured by the p-HER2 monoclonal antibody. […] Lapatinib, an EGFR and HER2 kinase dual inhibitor were used as a positive control.

[3] = disulfide bond stability, CD spectrum with dithiothreitol; type: physicochemical; conditions: presence versus absence of dithiothreitol
A549 cells = conditions: read-out: IC50 A549 (HER2+); antiproliferative activity
Experimental: (§1) Antiproliferative activity of grafted cyclic peptides. Antiproliferative activity of the designed grafted peptides was evaluated in different HER2-overexpressing cancer cell lines as well as HER2 negative cancer cell lines.
(§2) Table 1. […] Single letter amino acid code was used for peptide sequence. Lower case letters refer to D amino acids and capital letters refer to L amino acids. Chirality of Anapa was indicated with R and S configuration in italics. Antiproliferative activity of peptides in cancer cell lines are given as IC50 in μM. Disulfide bonds between the cysteines are underlined.

Calu-3 cells = conditions: read-out: IC50 Calu-3 (HER2+); antiproliferative activity
Experimental: as §1, §2

MCF-7 cells = conditions: read-out: IC50 MCF-7 (HER2−); antiproliferative activity
Experimental: as §1, §2

BT-474 cells = conditions: read-out: IC50 BT-474 (HER2+); antiproliferative activity
Experimental: as §1, §2

T cells (splenocytes) = assay: immunogenicity, flow cytometry T-cell proliferation (Ki-67) in primed BALB/c mice; type: in vivo; conditions: BALB/c mice primed 6 mg/kg; splenocytes with 5 μM peptide, 48 h
Experimental: SFTI-G5 is not immunogenic in mice. Molecules that are not endogenous to the body can trigger cellular responses when administered. […] Ki-67 is a proliferation marker of nuclear protein and has been used to measure specific T-cell responses. […] The animals were sacrificed on the 13th day, and splenocytes were harvested and cultured in vitro from both control and primed groups, either in the presence or absence of the peptide. Concanavalin A (5 μg/mL), an antigen-independent mitogen known to induce T-cell proliferation, was used as a positive control.

Calu-3 xenograft tumors = assay: Calu-3 xenograft model of lung cancer in nude mice; type: in vivo
Experimental: 5×10^6 Calu-3 cells suspended in serum-free medium were subcutaneously inoculated in left flank region of mice to induce lung cancer (Foxn1-nude). Peptide (8 mg/kg) was administered via intratumoral injection three times a week after 10 days, Pertuzumab was injected with a loading dose of 12 mg/kg and then 6 mg/kg as maintenance dose intraperitonially once a week, Trastuzumab and pertuzumab combination was injected at a loading dose of 12 mg/kg and then 6 mg/kg as maintenance dose once a week. […] For comparison, pertuzumab (up triangle, blue) and trastuzumab and pertuzumab combination (down triangle, red) also shown (with standard errors for n=6). […] C) PPI inhibition assessed by PLA on tumor tissue sample. […] Tumor sections were homogenized, and protein was extracted and subjected to Western blot. […] (** p<0.01). Mean±SEM.
HER2 dimerization inhibitors such as pertuzumab and trastuzumab and pertuzumab combinations were also administered as control groups (FIG. 11A). […] During the course of the experiment, the tumor size in the control xenograft group without any treatment continued to increase, reaching a diameter of ˜9 mm in 28 days (FIG. 11B).
To evaluate the phosphorylation of HER2 protein, Western blot analysis was performed on frozen tumor samples.

MCF-10A cells = assay: Cell Titer-Glo antiproliferative assay, MCF-10A; type: cell-based; conditions: antiproliferative activity, non-cancerous breast epithelial cell line
Experimental: as §1, §2

[4] = thermal stability by circular dichroism and MALDI-TOF; type: physicochemical; conditions: CD and mass spectrum, 25-75° C., in solution
Experimental: To confirm further, a mass spectrum of SFTI-G5 was obtained from the solution used to record the CD spectrum at different temperatures. Freeze-dried samples of different temperatures were analyzed via MALDI-TOF mass spectrometry.

[5] = tested on: A549 Red-FLuc lung tumors; assay: experimental metastasis model of lung cancer, A549 Red-FLuc cells
[6] = tested on: CD2:CD58 interaction (SRBC expressing CD58 / Jurkat cells expressing CD2); assay: E-rosetting assay, sheep red blood cells / Jurkat T cells; type: cell-based
Experimental: Peptides were added to AET-treated sheep red blood cells (SRBC) (expressing CD58 protein) first, and Jurkat cells (expressing CD2 protein) labeled with BCECF were added later. Cells with five or more SRBC bound were counted as rosettes. Values are percent inhibition of peptide-treated cells and are expressed as the mean of three experimental values. Error bars represent standard error of the mean (SEM).
The ability of peptides to inhibit cell adhesion was evaluated using E-rosetting assay via interaction between sheep red blood cells (SRBC) expressing CD58 and Jurkat T cells expressing CD2 protein. When these cells are incubated, they adhere to each other. Each Jurkat cell adheres to many sheep red blood cells. Five or more SRBC adhering to a Jurkat cell is counted as positive E-rosetting.

[7] = tested on: collagen-induced arthritis; conditions: cited from earlier work

NCCCC[C@H](N)C(=O)NC(CC(=O)N[C@@H](Cc1ccccc1)C(=O)O)c1cccc2ccccc12 (stereo partly shown) [Control, H2N-K(X)F-OH]
SPR response on HER2 ECD [1]: no SPR response was recorded

CC[C@H](C)[C@@H]1NC(=O)[C@H](CCCNC(=N)N)NC(=O)C[C@@H](c2cccc3ccccc23)NC(=O)[C@@H]2CSSC[C@H](NC(=O)C[C@@H](c3cccc4ccccc34)NC(=O)[C@H](CCCNC(=N)N)NC(=O)[C@@H]3CCCN3C(=O)[C@@H]3CCCN3C1=O)C(=O)N[C@@H](Cc1ccccc1)C(=O)N1CCC[C@H]1C(=O)N[C@@H](CC(=O)O)C(=O)N[C@@H](CC(=O)O)C(=O)N[C@@H](Cc1ccccc1)C(=O)N2 [SFTI-G5, Cyclo(C(S-X)RIPPR(S-X)CFPDDF)]
total HER2 protein levels [2]: no significant change in total HER2 protein levels | phosphorylation of Akt ([2]; 1 μM, 40 h, vs control): significantly inhibited the phosphorylation of Akt | phosphorylation of HER2 kinase ([2]; 1 μM, 40 h, vs control): significantly decreases the phosphorylation of HER2 kinase | CD spectrum on addition of DTT [3]: sharp change in CD spectrum | IC50 (A549 cells): 369 nM | IC50 (Calu-3 cells): 73 nM | IC50 (MCF-7 cells): 25600 ± 1460 nM | IC50 (BT-474 cells): 280 nM | immune response: Ki-67 expression in CD3+ subsets (T cells (splenocytes)): did not show any significant immune response; also recorded: non-immunogenic | tumor growth (Calu-3 xenograft tumors; Calu-3 xenograft, SFTI-G5 8 mg/kg intratumoral thrice a week, antibodies 12 then 6 mg/kg once a week): delay in tumor growth that was significant compared to control; also recorded: delayed tumor growth | tolerability, body weight and clinical observations (Calu-3 xenograft tumors; SFTI-G5 monotherapy dosing schedule): well-tolerated | EGFR:HER2 dimerization in tumor sections (PLA) (Calu-3 xenograft tumors; vs control tumor sample): markedly diminished signals from dimerization | HER2 phosphorylation in tumor samples (Western blot) (Calu-3 xenograft tumors; vs vehicle treatment): significant inhibition of HER2 phosphorylation | IC50 (MCF-10A cells): > 50000 nM | thermal stability [4]: stable at 75 °C; also recorded: stable up to 75 °C | rate of tumor growth, total flux (p/s) ([5]; 6 mg/kg i.v. twice a week, vs vehicle): decreased; also recorded: significant reduction in tumor growth | H&E histology of lungs: enlarged hyperchromatic nuclei, eosinophilic cytoplasm ([5]; vs vehicle control): there were less

CC[C@H](C)[C@@H]1NC(=O)[C@H](CC(=O)O)NC(=O)[C@H](CC(=O)O)NC(=O)[C@@H]2CCCN2C(=O)[C@H]2CCCN2C(=O)[C@H](CC(=O)O)NC(=O)[C@H](Cc2ccc(O)cc2)NC(=O)[C@H]([C@@H](C)CC)NC(=O)[C@H](CO)NC(=O)[C@H](CCCCN)NC1=O [Peptide 6, Cyclo(SIYDpPDDIK)]
IC50 [6]: 9.4 ± 0.3 nM | histopathology of paws ([7]; 0.5 mg/kg): clear joint space with normal cartilage interface | anti-CII antibodies in sera ([7]; 0.5 and 1 mg/kg i.v.): dose-dependent reduction | acute clinical signs of illness / direct toxicity ([7]; DBA/1 mice, during dosing): minimal, if any, direct toxicity
